Columns and labels:
Assay type in all cases: cell-based
[1] = tested on: Human ES cells (KhES-1); experiment: Differentiation of human ES cell aggregates (SFEBq method) into midbrain-hindbrain boundary neural progenitors
Method: Human ES cells (KhES-1) subjected to maintenance culturing on MEF by a conventional method were used. To differentiate human ES cells by the serum-free floating culture of embryoid body-like aggregates with quick reaggregation (SFEBq method), human ES cells were enzymatically dispersed to single cells, according to the method of Nakano et al. (Cell Stem Cell, 10(6), 771-785, 2012), and reaggregated using a low-cell-adhesive V-bottom 96 well plate (SUMITOMO BAKELITE). 6,000 cells were seeded per well, and cultured in, as a differentiation medium, CDM medium [chemical synthesis medium without a growth factor (growth-factor-free Chemically Defined Medium; gfCDM; Wataya et al., Proc. Natl. Acad. Sci. USA, 105, 11796-11801, 2008) supplemented with insulin (7 μg/ml) and apo-transferrin (15 μg/ml)] under 5% CO2 at 37° C.
The seeding day is taken as day 0 of differentiation culturing. […] […] On day 7, ⅓ of the medium was exchanged with a differentiation medium free of Y-27632, SB431542 and Fgf2. On day 14 of culturing, the medium was completely substituted by a differentiation medium free of Y-27632, SB431542 and FGF2. The cell aggregates were fixed and sliced, and tissue differentiation was analyzed by the immunofluorescence method and quantitative PCR method.

[2] = tested on: Human pluripotent stem cell aggregates; experiment: Self-formation of cerebellar plate tissue (Kirrel2 positive neuroepithelium) from human pluripotent stem cell aggregates
Method: The was aggregates were transferred to a low-cell-adhesion 10 cm dish on and after day 21, and cultured in a neural culture medium (Neurobasal/GlutaMaxI/N2, all Life Technologies). On day 28 of culturing, the total amount of the medium was exchanged with the same neural culture medium, and differentiation of the tissue was analyzed by the immunofluorescence method on day 35 of culturing.
Separated Kirrel2 positive cells, and cerebellar granule cell progenitors prepared from the upper rhombic lip of embryonic day 14 mouse were dispersed into single cells by cell dispersion enzyme (TrypLE, Life Technologies), and cocultured on a cover glass coated with poly D-lysine/laminin in DMEM/F12/10% FBS medium (5% CO2, 37° C.). In coculture, human pluripotent stem cell-derived Kirrel positive cells (1 vol) relative to mouse-derived cerebellar granule cell progenitors (10 vol) were mixed. After 6-12 hr, DMEM/F12/N2/BSA/Tri-iodothyronine (T3) was added to decrease the FBS concentration to about 0.8%.

[3] = tested on: Human pluripotent stem cell aggregates; experiment: Formation of cerebellar plate tissue having dorsal-ventral axis pattern by addition of FGF19
Method: Human pluripotent stem cell aggregates were cultured according to the methods of Examples 1 and 2. […] The cells were cultured in a neural culture medium (Neurobasal/GlutaMaxI/N2) on and after day 21. On day 28, the total amount of the medium was exchanged with the same medium, and on day 35, tissue differentiation was analyzed by the immunofluorescence method.

[4] = tested on: Human pluripotent stem cell aggregates; experiment: Formation of rhombic lip and 3 layer structure of cerebellar plate by addition of SDF1
Method: Human pluripotent stem cell aggregates were cultured according to the method of Example 6. On and after day 21, the cells were cultured in a neural culture medium (Neurobasal/GlutaMaxI/N2). On day 28, the total amount of the medium was exchanged with the same medium, and SDF1 was added at a final concentration of 300 ng/ml. On day 35, differentiation of the tissue was analyzed by the immunofluorescence method.

[5] = tested on: Purkinje cells induced from human pluripotent stem cell aggregates; experiment: Patch clamp analysis of Purkinje cells induced from human pluripotent stem cells; details: AMPA receptor inhibitor
Method: Mature Purkinje cells were differentiated from human pluripotent stem cell aggregates according to the method of Example 3. Using the Patch clamp technique, the electrophysiological reaction thereof was analyzed.

[6] = tested on: Human pluripotent stem cell aggregates; experiment: Formation of rhombic lip in cerebellar plate tissue by addition of GDF7
Method: Human pluripotent stem cell aggregates were cultured according to the method of Example 6. […] The cells were continuously cultured in a neural culture medium (Neurobasal/GlutaMaxI/N2). On day 28, the total amount of the medium was exchanged with the same medium free of GDF7, and on day 35, the cells were analyzed by the immunofluorescence method and the quantitative PCR method.

[7] = FGF2 50 ng/ml day 2 to day 7 vs Fgf2 non-addition, quantitative PCR
[8] = FGF19 100 ng/ml added on day 14, analysed day 35
[9] = SDF1 300 ng/ml added on day 28, analysed day 35
[10] = GDF7 100 ng/ml added on day 21, day 35, quantitative PCR
[11] = GDF7 added from day 14 of culturing

## C[C@@H](N)[C@H]1CC[C@H](C(=O)Nc2ccncc2)CC1 [Y-27632, (+)-(R)-trans-4-(1-aminoethyl)-N-(4-pyridyl)cyclohexanecarboxamide, reference compound]
[1]; when Y-27632 was not added
  aggregate formation of human ES cells: did not form an aggregate

## Sonic Hedgehog
[2]; addition of Sonic Hedgehog to human pluripotent stem cell culturing system
  formation of polarized cerebellar plate: conversely promotes formation of polarized cerebellar plate

## FGF2: known cytokine also called basic fibroblast growth factor (bFGF); first fibroblast growth factor
[1]; FGF2 20 ng/ml
  differentiation into neural progenitors in the midbrain-hindbrain boundary: promoted differentiation into neural progenitors in the midbrain-hindbrain boundary
[1]; [7]
  expression of forebrain markers Six3 and Otx2: suppressed
  expression of midbrain-hindbrain boundary markers En2, Gbx2: markedly increased
[1]; FGF2 100 ng/ml
  differentiation into neural progenitors in the midbrain-hindbrain boundary: promoted differentiation into neural progenitors in the midbrain-hindbrain boundary
[1]; FGF2 5-10 ng/ml (concentration used for maintenance culturing of ES cells)
  differentiation into neural progenitors in the midbrain-hindbrain boundary: did not show promotion of differentiation
[1]; FGF2 added days 2-7
  differentiation into neural progenitors in the midbrain-hindbrain boundary: showed the highest effect
[1]; FGF2 added days 2-14
  differentiation into neural progenitors in the midbrain-hindbrain boundary: exhibited a promoting effect
[1]; FGF2 added days 3-7
  differentiation into neural progenitors in the midbrain-hindbrain boundary: exhibited a promoting effect
[1]; FGF2 added days 4-7
  differentiation into neural progenitors in the midbrain-hindbrain boundary: exhibited a promoting effect
[1]; FGF2 added from day 0
  differentiation into neural progenitors in the midbrain-hindbrain boundary: remarkable promotion of differentiation into neural progenitors in the midbrain-hindbrain boundary was not observed
[1]; FGF2 added from day 1
  differentiation into neural progenitors in the midbrain-hindbrain boundary: remarkable promotion of differentiation into neural progenitors in the midbrain-hindbrain boundary was not observed
[1]; FGF2 addition, days 10 and 14
  expression of Fgf8 and Wntl (isthmic organizer): enhanced
[2]; day 35, cells exposed to Fgf2
  kirrel2 positive cells (FACS, anti-kirrel2 antibody): ~30%

## FGF19: known cytokine, human ortholog of mouse Fgf15; second fibroblast growth factor
[3]; FGF19 50 ng/ml
  effect (frequency) on dorsal-ventral polarity formation relative to that at 100 ng/ml: about ⅓
  formation of structure having polarity along the dorsal-ventral axis of neural tube: promoted formation of a structure having polarity along the dorsal-ventral axis of the neural tube
[3]; [8]
  formation of continuous flat-oval neuroepithelial structure in the cell aggregate: promoted formation of a continuous flat-oval neuroepithelial structure
  formation of structure having polarity along the dorsal-ventral axis of neural tube: resulted in the formation of a structure having polarity along the dorsal-ventral axis of neural tube
[3]; FGF19 300 ng/ml
  effect (frequency) on dorsal-ventral polarity formation relative to that at 100 ng/ml: of the same level as that at 100 ng/ml
  formation of the dorsal-ventral axis pattern: similarly promoted formation of the dorsal-ventral axis pattern
[3]; FGF19 added on day 10 of culturing
  formation of a dorsal-ventral axis pattern: formation of a dorsal-ventral axis pattern was promoted, though the efficiency was low

## CC1=C2C[C@H]3[C@@H](CC=C4C[C@@H](O)CC[C@@]43C)[C@@H]2CC[C@]12O[C@@H]1C[C@H](C)CN[C@H]1[C@H]2C [cyclopamine, reference compound]
[2]; Hedgehog inhibitor added
  cerebellar plate formation from human pluripotent stem cells: did not significantly promote cerebellar plate formation

## NC(=O)c1ccc(-c2nc(-c3ccc4c(c3)OCO4)c(-c3ccccn3)[nH]2)cc1 [SB431542, 4-(5-benzol[1,3]dioxol-5-yl-4-pyridin-2-yl-1H-imidazol-2-yl)-benzamide, reference compound]
[1]; SB431542 3 μM
  induction of differentiation into neural progenitors: induction of differentiation into neural progenitors was also observed
[1]; SB431542 10-30 μM
  differentiation into neural progenitors in the midbrain-hindbrain boundary: induced differentiation into neural progenitors in the midbrain-hindbrain boundary

## SDF1: known chemokine also called CXCL12, secreted ligand for chemokine receptor 4 (CXCR4)
[4]; SDF1 100 ng/ml
  formation of rhombic lip and 3 layer structure of cerebellar plate: promoted formation of rhombic lip and formation of a 3 layer structure of cerebellar plate
[4]; [9]
  configuration of the rhombic lip: enables continuous configuration of the rhombic lip
  formation of continuous kirrel2 positive neuroepithelial structure: promoted formation of a continuous kirrel2 positive neuroepithelial structure
[4]; SDF1 500 ng/ml
  formation of rhombic lip and 3 layer structure of cerebellar plate: promoted formation of rhombic lip and formation of a 3 layer structure of cerebellar plate
[4]; SDF1 added from day 21
  formation of rhombic lip and 3 layer structure of cerebellar plate: an effect similar to that when added from day 28 was observed

## laminin
[4]; used in place of SDF1
  formation of rhombic lip and 3 layer structure of cerebellar plate: could not substitute SDF1

## NS(=O)(=O)c1cccc2c1c([N+](=O)[O-])cc1nc(O)c(O)nc12 [NBQX]
[5]
  miniature excitatory postsynaptic current: suppression of miniature excitatory postsynaptic current

B1: FGF17: fibroblast growth factor used instead of FGF19 (protein, UniProt O60258 23-216, looked up)
Fibroblast growth factor 17: TQGENHPSPNFNQYVRDQGAMTDQLSRRQIREYQLYSRTSGKHVQVTGRRISATAEDGNKFAKLIVETDTFGSRVRIKGAESEKYICMNKRGKLIGKPSGKSKDCVFTEIVLENNYTAFQNARHEGWFMAFTRQGRPRQASRSRQNQREAHFIKRLYQGQLPFPNHAEKQKQFEFVGSAPTRRTKRTRRPQPLT
[3]; used instead of FGF19
  formation of a dorsal-ventral axis pattern: promoted like FGF19, though the effect was weaker than FGF19

B2: FGF8: fibroblast growth factor used instead of FGF19 (protein, UniProt P55075 23-233, looked up)
Fibroblast growth factor 8: QEGPGRGPALGRELASLFRAGREPQGVSQQHVREQSLVTDQLSRRLIRTYQLYSRTSGKHVQVLANKRINAMAEDGDPFAKLIVETDTFGSRVRVRGAETGLYICMNKKGKLIAKSNGKGKDCVFTEIVLENNYTALQNAKYEGWYMAFTRKGRPRKGSKTRQHQREVHFMKRLPRGHHTTEQSLRFEFLNYPPFTRSLRGSQRTWAPEPR
[3]; used instead of FGF19
  formation of a dorsal-ventral axis pattern: promoted like FGF19, though the effect was weaker than FGF19

B3: GDF7: known cytokine promoting differentiation into cerebellar granule cell progenitors and formation of rhombic lip (protein, UniProt Q7Z4P5 322-450, looked up)
Growth/differentiation factor …: TALAGTRTAQGSGGGAGRGHGRRGRSRCSRKPLHVDFKELGWDDWIIAPLDYEAYHCEGLCDFPLRSHLEPTNHAIIQTLLNSMAPDAAPASCCVPARLSPISILYIDAANNVVYKQYEDMVVEACGCR
[6]; GDF7 100 ng/ml added on day 21, analysed day 35, immunofluorescence
  expression of Atoh1 positive cell in neural progenitor tissue: promoted expression of Atoh1 positive cell
[6]; [10]
  Atoh1 gene level relative to that by the addition of FGF2 (first comparison printed): about 220 fold
  Atoh1 gene level relative to that by the addition of FGF2 (second comparison printed): 1.5 fold
[6]; [11]
  growth of cell aggregate: growth of cell aggregate was inhibited
  induction of Atoh1 positive cell: Atoh1 positive cell was induced
[6]; GDF7 not removed from the medium on and after day 28
  formation of the rhombic lip: adverse influence on the formation of the rhombic lip was not found

B4: BMP4: factor known to promote formation of rhombic lip in mouse (protein, UniProt P12644 293-408, looked up)
Bone morphogenetic protein 4: SPKHHSQRARKKNKNCRRHSLYVDFSDVGWNDWIVAPPGYQAFYCHGDCPFPLADHLNSTNHAIVQTLVNSVNSSIPKACCVPTELSAISMLYLDEYDKVVLKNYQEMVVEGCGCR
[6]; BMP4 used instead of GDF7
  formation of the rhombic lip from human pluripotent stem cell: could not be induced

From patent US10781420B2, “Method for producing cerebellar progenitor tissue” (RIKEN, priority 2014, dated 2020)
